Measurements from paper PMC8142146 (Bioorganic chemistry, 2020).

Key:
Format in all cases: biochemical
PARP10 = target: T1, PARP10 (Homo sapiens, UniProt Q53GL7); test: PARP-isoform screening, Chemiluminescent Activity Assay Kit; details: Figure 5
T1 sequence (Q53GL7 1-1025): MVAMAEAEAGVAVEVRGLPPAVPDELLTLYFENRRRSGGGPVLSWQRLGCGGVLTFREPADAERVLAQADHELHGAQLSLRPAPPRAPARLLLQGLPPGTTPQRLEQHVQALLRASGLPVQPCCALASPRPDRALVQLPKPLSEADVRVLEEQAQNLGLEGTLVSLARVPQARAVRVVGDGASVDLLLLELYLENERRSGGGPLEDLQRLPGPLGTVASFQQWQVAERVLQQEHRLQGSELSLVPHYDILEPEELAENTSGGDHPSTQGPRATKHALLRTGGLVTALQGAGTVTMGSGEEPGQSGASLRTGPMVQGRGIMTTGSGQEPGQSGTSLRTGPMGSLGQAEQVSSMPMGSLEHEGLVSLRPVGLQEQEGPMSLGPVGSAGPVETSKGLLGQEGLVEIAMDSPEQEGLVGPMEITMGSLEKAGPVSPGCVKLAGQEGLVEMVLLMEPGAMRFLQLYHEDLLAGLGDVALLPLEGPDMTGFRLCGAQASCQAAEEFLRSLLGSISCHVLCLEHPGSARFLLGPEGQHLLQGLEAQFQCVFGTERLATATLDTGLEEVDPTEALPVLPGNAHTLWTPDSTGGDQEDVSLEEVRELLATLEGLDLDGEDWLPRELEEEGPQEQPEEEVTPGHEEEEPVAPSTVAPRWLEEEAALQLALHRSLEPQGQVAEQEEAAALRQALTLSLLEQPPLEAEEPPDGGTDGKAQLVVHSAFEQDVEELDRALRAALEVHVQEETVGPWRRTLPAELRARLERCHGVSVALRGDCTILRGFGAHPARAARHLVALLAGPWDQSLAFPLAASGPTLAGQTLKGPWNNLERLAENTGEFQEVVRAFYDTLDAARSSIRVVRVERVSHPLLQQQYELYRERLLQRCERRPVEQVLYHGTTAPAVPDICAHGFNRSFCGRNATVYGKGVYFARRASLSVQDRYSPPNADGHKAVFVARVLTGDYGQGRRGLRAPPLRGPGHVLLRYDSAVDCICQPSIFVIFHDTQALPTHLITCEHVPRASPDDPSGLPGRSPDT

PARP14 = PARP14 (Homo sapiens, UniProt Q460N5); test: as above; details: Figure 5
Sequence of PARP14 (Q460N5 whole entry): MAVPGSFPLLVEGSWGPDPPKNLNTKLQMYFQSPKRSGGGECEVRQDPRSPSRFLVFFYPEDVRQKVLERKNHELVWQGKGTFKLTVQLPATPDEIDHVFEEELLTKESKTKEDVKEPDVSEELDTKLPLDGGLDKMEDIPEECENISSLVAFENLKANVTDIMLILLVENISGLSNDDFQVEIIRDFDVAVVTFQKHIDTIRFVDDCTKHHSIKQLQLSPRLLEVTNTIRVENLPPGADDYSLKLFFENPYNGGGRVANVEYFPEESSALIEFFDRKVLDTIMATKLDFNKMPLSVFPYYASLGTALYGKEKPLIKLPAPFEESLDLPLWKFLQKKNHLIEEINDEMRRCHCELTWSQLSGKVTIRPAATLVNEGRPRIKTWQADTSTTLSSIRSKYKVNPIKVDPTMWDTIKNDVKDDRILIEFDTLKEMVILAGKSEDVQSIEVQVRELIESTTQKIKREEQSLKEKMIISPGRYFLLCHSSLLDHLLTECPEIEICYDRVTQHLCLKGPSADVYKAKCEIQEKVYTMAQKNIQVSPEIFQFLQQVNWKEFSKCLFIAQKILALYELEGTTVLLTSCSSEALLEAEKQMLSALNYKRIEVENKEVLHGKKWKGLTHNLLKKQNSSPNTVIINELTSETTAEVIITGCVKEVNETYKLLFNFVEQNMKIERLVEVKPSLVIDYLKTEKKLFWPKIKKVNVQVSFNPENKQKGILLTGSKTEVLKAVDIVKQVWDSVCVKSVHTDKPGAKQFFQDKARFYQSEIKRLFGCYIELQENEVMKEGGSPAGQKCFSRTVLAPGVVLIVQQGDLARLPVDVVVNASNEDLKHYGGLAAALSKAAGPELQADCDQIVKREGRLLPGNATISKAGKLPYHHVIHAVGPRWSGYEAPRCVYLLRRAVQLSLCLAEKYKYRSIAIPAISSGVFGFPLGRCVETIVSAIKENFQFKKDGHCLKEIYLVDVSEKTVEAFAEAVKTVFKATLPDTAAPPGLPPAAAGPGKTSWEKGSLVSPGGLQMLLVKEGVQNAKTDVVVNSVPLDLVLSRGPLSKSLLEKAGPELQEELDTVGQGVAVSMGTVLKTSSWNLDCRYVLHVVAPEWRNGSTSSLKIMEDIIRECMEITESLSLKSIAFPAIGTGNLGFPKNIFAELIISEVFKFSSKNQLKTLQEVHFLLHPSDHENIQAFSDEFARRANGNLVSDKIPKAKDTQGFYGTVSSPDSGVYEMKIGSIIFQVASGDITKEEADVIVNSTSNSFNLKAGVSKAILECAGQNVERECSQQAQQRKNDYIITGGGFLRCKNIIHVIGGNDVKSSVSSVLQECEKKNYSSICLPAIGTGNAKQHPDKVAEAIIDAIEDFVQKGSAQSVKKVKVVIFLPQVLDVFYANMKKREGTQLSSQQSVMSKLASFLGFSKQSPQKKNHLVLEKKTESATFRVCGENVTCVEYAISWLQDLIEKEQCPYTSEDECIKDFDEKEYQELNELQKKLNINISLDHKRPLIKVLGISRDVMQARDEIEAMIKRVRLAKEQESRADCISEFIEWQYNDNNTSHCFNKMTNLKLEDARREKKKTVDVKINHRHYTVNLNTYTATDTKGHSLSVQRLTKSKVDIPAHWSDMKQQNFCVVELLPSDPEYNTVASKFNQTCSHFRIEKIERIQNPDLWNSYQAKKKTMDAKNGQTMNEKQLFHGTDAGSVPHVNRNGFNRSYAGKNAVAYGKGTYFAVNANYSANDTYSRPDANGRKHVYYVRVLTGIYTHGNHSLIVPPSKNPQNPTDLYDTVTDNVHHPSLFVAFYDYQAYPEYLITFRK

PARP3 = target: T2, PARP3 (Homo sapiens, UniProt Q9Y6F1); test: as above; details: Figure 5
T2 sequence (Q9Y6F1 1-533): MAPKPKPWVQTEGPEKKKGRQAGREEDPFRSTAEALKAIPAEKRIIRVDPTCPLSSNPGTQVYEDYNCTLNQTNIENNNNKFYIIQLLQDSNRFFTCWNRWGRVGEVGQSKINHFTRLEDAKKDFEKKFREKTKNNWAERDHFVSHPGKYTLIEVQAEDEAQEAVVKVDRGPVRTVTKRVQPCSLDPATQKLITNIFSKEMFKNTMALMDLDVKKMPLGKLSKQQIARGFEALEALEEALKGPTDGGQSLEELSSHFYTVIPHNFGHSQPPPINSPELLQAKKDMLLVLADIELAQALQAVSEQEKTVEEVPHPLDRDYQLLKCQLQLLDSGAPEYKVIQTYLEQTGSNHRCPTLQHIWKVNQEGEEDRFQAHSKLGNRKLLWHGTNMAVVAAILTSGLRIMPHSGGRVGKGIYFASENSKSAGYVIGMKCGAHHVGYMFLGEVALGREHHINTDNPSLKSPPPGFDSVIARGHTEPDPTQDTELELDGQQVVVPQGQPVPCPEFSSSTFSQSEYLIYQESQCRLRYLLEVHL

TNKS2 (PARP5B) = target: T3, TNKS2 (PARP5B) (Homo sapiens, UniProt Q9H2K2); test: as above; details: Figure 5
T3 sequence (Q9H2K2 1-1166): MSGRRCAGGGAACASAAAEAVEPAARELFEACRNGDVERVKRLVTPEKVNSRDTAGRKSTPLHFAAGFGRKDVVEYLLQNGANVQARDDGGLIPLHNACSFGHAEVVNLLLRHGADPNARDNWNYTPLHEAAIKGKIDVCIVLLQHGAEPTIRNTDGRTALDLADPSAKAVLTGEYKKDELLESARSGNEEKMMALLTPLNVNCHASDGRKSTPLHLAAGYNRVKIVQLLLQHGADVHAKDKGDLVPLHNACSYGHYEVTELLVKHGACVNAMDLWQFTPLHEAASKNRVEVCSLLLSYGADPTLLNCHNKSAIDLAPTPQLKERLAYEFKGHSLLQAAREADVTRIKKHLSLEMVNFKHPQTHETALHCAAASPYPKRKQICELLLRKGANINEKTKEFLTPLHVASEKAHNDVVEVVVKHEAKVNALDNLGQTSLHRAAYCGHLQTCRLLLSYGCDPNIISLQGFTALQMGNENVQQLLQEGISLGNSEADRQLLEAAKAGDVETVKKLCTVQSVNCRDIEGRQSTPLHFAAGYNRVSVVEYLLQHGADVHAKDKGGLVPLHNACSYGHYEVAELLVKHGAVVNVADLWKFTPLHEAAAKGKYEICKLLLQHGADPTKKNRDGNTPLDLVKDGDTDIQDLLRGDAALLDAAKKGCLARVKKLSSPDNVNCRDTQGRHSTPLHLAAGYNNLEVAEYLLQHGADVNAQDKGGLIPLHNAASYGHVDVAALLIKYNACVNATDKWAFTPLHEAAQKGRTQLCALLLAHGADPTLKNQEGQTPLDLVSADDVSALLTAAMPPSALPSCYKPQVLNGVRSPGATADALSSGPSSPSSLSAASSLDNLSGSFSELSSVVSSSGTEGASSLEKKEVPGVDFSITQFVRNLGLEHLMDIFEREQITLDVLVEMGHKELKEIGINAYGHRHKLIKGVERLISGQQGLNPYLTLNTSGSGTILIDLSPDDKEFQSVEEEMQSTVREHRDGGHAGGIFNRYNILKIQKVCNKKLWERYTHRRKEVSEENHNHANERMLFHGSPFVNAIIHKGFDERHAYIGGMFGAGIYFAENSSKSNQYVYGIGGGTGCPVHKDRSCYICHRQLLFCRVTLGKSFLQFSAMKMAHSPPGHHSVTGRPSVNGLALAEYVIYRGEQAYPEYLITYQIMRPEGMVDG

PARP1 = PARP1 (Homo sapiens, UniProt P09874); test: BPS PARP1 Chemiluminescent Activity Assay Kit
Sequence of PARP1 (P09874 whole entry): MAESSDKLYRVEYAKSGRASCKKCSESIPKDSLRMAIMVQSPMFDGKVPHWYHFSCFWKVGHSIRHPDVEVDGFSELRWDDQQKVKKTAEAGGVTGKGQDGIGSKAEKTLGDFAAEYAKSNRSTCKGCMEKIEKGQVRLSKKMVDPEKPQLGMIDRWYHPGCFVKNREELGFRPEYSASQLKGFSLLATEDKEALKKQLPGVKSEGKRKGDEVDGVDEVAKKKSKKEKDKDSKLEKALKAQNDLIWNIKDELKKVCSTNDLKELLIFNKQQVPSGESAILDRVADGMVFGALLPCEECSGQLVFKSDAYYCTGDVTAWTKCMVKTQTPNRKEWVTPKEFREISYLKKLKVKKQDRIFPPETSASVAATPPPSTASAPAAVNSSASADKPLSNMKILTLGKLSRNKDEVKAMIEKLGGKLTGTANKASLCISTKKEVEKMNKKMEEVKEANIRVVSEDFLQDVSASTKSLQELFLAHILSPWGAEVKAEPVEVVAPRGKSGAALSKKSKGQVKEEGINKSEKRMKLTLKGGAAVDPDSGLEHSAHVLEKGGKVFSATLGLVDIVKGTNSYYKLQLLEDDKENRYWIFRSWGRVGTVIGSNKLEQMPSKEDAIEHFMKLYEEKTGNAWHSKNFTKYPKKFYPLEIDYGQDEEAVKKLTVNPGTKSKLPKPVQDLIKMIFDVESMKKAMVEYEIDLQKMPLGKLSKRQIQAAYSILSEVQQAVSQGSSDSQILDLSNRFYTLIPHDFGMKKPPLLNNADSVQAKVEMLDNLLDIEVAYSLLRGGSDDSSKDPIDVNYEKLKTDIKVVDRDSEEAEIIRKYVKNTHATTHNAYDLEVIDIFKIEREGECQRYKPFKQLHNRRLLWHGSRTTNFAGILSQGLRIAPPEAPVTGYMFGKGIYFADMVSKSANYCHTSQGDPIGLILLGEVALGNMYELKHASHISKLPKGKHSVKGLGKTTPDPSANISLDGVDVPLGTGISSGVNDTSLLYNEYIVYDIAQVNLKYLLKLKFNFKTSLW

**Q.** NC(=O)c1cccc2c1O/C(=C\c1ccc(O)cc1)C(=O)N2 [Compound 49, (Z)-2-(4-Hydroxybenzylidene)-3-oxo-3,4-dihydro-2H-benzo[b][1,4]oxazine-8-carboxamide] was tested. Which PARP10 inhibition (PARP10) did it give?
**A.** did not interfere

**Q.** What about the PARP14 inhibition (PARP14) of the same molecule?
**A.** did not interfere

**Q.** What about the PARP3 inhibition (PARP3) of the same molecule?
**A.** substantially inhibited

**Q.** And the TNKS2 inhibition (TNKS2 (PARP5B))?
**A.** substantially inhibited

**Q.** And the IC50 (PARP1)?
**A.** 82 ± 45 nM
